# Legend:
# [1] = target: Disintegrin and metalloproteinase domain-containing protein 17 (Sus scrofa, UniProt O77636); experiment: Inhibition of porcine TACE
# [2] = Dissociation constant, pKa in water; format: physicochemical
# Chain of Disintegrin and metalloproteinase domain-containing protein 17 (O77636 whole entry, the tested form may be a part): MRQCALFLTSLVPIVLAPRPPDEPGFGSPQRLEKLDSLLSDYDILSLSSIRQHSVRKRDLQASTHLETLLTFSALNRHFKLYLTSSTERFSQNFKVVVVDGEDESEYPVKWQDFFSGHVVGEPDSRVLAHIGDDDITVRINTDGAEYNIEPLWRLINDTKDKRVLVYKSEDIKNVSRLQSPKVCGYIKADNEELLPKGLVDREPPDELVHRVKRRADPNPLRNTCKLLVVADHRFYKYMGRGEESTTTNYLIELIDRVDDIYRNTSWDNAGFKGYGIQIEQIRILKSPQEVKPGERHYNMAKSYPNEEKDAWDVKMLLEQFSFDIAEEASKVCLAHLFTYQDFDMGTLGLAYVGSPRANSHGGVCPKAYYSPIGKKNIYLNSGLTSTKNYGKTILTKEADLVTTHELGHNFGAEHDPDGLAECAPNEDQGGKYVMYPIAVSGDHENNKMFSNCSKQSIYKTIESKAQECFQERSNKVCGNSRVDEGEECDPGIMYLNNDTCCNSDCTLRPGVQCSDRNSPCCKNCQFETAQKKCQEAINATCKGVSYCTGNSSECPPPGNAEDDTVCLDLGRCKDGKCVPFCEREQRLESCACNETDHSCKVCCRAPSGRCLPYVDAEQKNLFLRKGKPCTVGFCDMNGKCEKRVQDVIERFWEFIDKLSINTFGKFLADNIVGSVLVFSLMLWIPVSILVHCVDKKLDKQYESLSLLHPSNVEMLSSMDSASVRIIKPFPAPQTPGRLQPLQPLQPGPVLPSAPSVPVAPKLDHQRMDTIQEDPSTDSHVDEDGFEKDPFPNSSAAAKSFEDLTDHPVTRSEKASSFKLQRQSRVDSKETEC
SMILES,IC50 [1] [nM],pKa [2]
Cc1cc(COc2ccc(C3(N4CCN(C)CC4)C(=O)NC(=O)NC3=O)cc2)c2ccccc2n1,91,7.2
Cc1cc(COc2ccc([C@@]3(C)CCN([C@@H](C)C(=O)NO)C3=O)cc2)c2ccccc2n1,< 1,9
Cc1cc(COc2ccc(C(=O)N[C@H]3CNC[C@@]34NC(=O)NC4=O)cc2)c2ccccc2n1,25,
Cc1cc(COc2ccc(NC(=O)C[C@H]3CCC[C@]34NC(=O)NC4=O)cc2)c2ccccc2n1 [listing 1 of 2 here],17,
Cc1cc(COc2ccc(NC(=O)C[C@@H]3CCC[C@]34NC(=O)NC4=O)cc2)c2ccccc2n1,7400,
Cc1cc(COc2ccc(NC(=O)C[C@@H]3CCC[C@@]34NC(=O)NC4=O)cc2)c2ccccc2n1,11,
Cc1cc(COc2ccc(NC(=O)[C@H]3CCC[C@]34NC(=O)NC4=O)cc2)c2ccccc2n1,230,
Cc1cc(COc2ccc(NC(=O)[C@@H]3CCC[C@]34NC(=O)NC4=O)cc2)c2ccccc2n1,64,
Cc1cc(COc2ccc(C(=O)NCC3NC(=O)NC3=O)cc2)c2ccccc2n1 (centres undefined),98,
Cc1cc(COc2ccc(C(=O)N[C@@H]3CNC[C@]34NC(=O)NC4=O)cc2)c2ccccc2n1,900,
Cc1cc(COc2ccc(NC(=O)C[C@H]3CCC[C@]34NC(=O)NC4=O)cc2)c2ccccc2n1 [listing 2 of 2 here],900,8.9

# Source: ChEMBL document CHEMBL1139072, “A molecular modeling analysis of novel non-hydroxamate inhibitors of TACE” (Bioorg Med Chem Lett, 2007)
